{"source": "patent US9446007B2", "about": "“Methods for maintaining or improving health, well-being and/or a physiological function in a subject” (DYNAMIS THERAPEUTICS, INC., priority 2012, dated 2016)", "key": {"[1]": {"assay": "Effects of meglumine in a human subject (Example 5)", "format": "in vivo", "conditions": "person, 500-1,500 mg orally daily over 5 years", "description": "A person suffering from right knee joint pain, and otherwise in good health, was orally administered 500-1,500 mg of meglumine hydrochloride on a daily basis over the period of 5 years (with two months off)."}, "[2]": {"assay": "Effects of meglumine in a human subject (Example 9)", "format": "in vivo", "conditions": "orally daily, 7 months", "excerpt": "A person suffering from high blood sugar was orally administered meglumine hydrochloride on a daily basis over the period of 7 months."}, "albumin/creatinine ratio": {"system": "albumin/creatinine ratio", "assay": "Urinary albumin/creatinine", "format": "in vivo, KK.Cg-A^y/+/J and KK.Cg-A^+/+/J mice", "conditions": "18 mM in drinking water, 12 weeks, not significant", "description": "Urinary creatinine and albumin levels were measured in KK.Cg-A^y/+/J “mutant” diabetic mice and KK.Cg-A^+/+/J “control” mice treated with or without 18 mM meglumine hydrochloride in the drinking water for 12 weeks."}, "[3]": {"assay": "Effects of meglumine in a human subject (Example 7)", "format": "in vivo", "conditions": "person on a blood thinner; orally daily, 1 month", "excerpt": "A person on a blood thinner medication was orally administered meglumine hydrochloride on a daily basis over the period of 1 month."}, "[4]": {"assay": "Effects of meglumine in a human subject (Example 11): blood lipids, lipoproteins, inflammation markers", "format": "in vivo", "conditions": "person, type 2 diabetes, 3×500 mg orally, with metformin", "description": "A person, suffering from type 2 diabetes, overweight (height of 5 feet 1 inch, and weight of 129 pounds, as of month 0) and with difficulty to lose weight through dieting and exercise, was administered meglumine hydrochloride (3×500 mg) orally over the period of 8 months. Over the duration of the study the subject was also administered metformin orally to manage their type 2 diabetes. The subject's blood was analyzed for lipids, lipoprotein particles and apolipoproteins, and inflammation/oxidation markers."}, "[5]": {"assay": "Effects of meglumine in a human subject (Example 10)", "format": "in vivo", "conditions": "person", "description": "A person, suffering from scleroderma and type 2 diabetes, overweight and with difficulty to lose through dieting and exercise, experiencing less energy than when younger, was administered meglumine hydrochloride (500 mg to 2000 mg) orally almost every day over 5 years."}, "[6]": {"assay": "Effects of meglumine in a human subject (Example 8)", "format": "in vivo", "conditions": "overweight person, 500-1,500 mg orally daily, 14 months", "description": "A person was overweight and suffering from fatty liver, experienced sore joints, lacked energy and required extended recovery time after exercise & travel, was orally administered 500-1,500 mg of meglumine hydrochloride on a daily basis over the period of 14 months."}, "[7]": {"assay": "Effects of meglumine in a human subject (Example 6)", "format": "in vivo", "conditions": "orally daily, one month", "excerpt": "A person suffering from high blood pleasure was orally administered meglumine hydrochloride on a daily basis over the period of one month."}, "triglyceride": {"system": "triglyceride", "assay": "Serum triglyceride levels", "format": "in vivo, KK.Cg-A^y/+/J diabetic mice", "conditions": "18 mM in drinking water for 32 weeks; n=9; control 752.21±201.29; p<0.001", "description": "Serum triglyceride levels were measured in KK.Cg-A^y/+/J diabetic mice treated with 18 mM meglumine hydrochloride in the drinking water for 32 weeks. […] A t-test was used to compare the mean values and a p<0.001 was calculated, indicating the decrease in plasma triglycerides in the meglumine treated mice is statistically significant."}, "[8]": {"conditions": "500 mg to 2000 mg orally over 5 years"}}, "data": [{"smiles": "CNC[C@H](O)[C@@H](O)[C@H](O)[C@H](O)CO.Cl", "note": "[meglumine hydrochloride]", "values": [{"measurement": "body weight", "setting": "[1]", "value": "overall weight loss/control effect"}, {"measurement": "increase in arm diameter", "setting": "[1]", "value": 1, "unit": "inch"}, {"measurement": "mental capacity", "setting": "[1]", "value": "increased mental capacity"}, {"measurement": "muscle-to-fat index", "setting": "[1]", "value": "increase in muscle-to-fat index"}, {"measurement": "sexual stamina and sexual performance", "setting": "[1]", "value": "improved sexual stamina and sexual performance"}, {"measurement": "skin condition", "setting": "[1]", "value": "improved"}, {"measurement": "vitality or energy levels", "setting": "[1]", "value": "improved vitality or energy levels"}, {"measurement": "military press weights", "setting": "[1]; from 200 lb", "value": 355, "unit": "lb"}, {"measurement": "blood glucose level", "setting": "[2]; person with high blood sugar, decrease from 202", "value": 75, "unit": "mg/dL"}, {"measurement": "weight loss", "setting": "[2]; person with high blood sugar, without regain", "value": 25, "unit": "pounds"}, {"measurement": "mental capacity", "setting": "[2]; person", "value": "increased mental capacity"}, {"measurement": "nail and hair health", "setting": "[2]; person", "value": "improvement in nail and hair health"}, {"measurement": "sexual stamina and sexual performance", "setting": "[2]; person", "value": "dramatically improved sexual stamina and sexual performance"}, {"measurement": "skin condition", "setting": "[2]; person", "value": "improved"}, {"measurement": "vitality or energy levels", "setting": "[2]; person", "value": "improved vitality or energy levels"}, {"measurement": "urinary albumin/creatinine ratio", "setting": "albumin/creatinine ratio; KK.Cg-A^+/+/J control mice, without meglumine 2.5±1.2", "value": "1.6±1.8"}, {"measurement": "urinary albumin/creatinine ratio", "setting": "albumin/creatinine ratio; KK.Cg-A^y/+/J mutant diabetic mice, without meglumine 17.3±15.4", "value": "12.4±8.7"}, {"measurement": "need for blood thinner medication", "setting": "[3]", "value": "able to discontinue the use of the blood thinner"}, {"measurement": "Apo B:Apo A-I ratio (calculated)", "setting": "[4]; month 8 (month 0: 0.73)", "value": 0.45}, {"measurement": "Lp(a) mass", "setting": "[4]; month 8 (month 0: 5)", "value": 6, "unit": "mg/dL"}, {"measurement": "HDL2-C", "setting": "[4]; month 8 (month 0: 19)", "value": 22, "unit": "mg/dL"}, {"measurement": "% sdLDL-C (calculated)", "setting": "[4]; month 8 (month 0: 35)", "value": 25, "unit": "%"}, {"measurement": "HDL-P", "setting": "[4]; month 8 (month 0: 44.3)", "value": 43.7, "unit": "μmol-L"}, {"measurement": "sdLDL-C", "setting": "[4]; month 8 (month 0: 56)", "value": 28, "unit": "mg/dL"}, {"measurement": "Lipids: HDL-C", "setting": "[4]; month 8 (month 0: 69)", "value": 71, "unit": "mg/dL"}, {"measurement": "Apo B", "setting": "[4]; month 8 (month 0: 133)", "value": 79, "unit": "mg/dL"}, {"measurement": "Lipids: triglycerides", "setting": "[4]; month 8 (month 0: 135)", "value": 82, "unit": "mg/dL"}, {"measurement": "Lp-PLA2", "setting": "[4]; month 8 (month 0: 152)", "value": 172, "unit": "ng/mL"}, {"measurement": "Lipids: LDL-C direct", "setting": "[4]; month 8 (month 0: 160)", "value": 111, "unit": "mg/dL"}, {"measurement": "Apo A-I", "setting": "[4]; month 8 (month 0: 183)", "value": 176, "unit": "mg/dL"}, {"measurement": "Lipids: non-HDL-C (calculated)", "setting": "[4]; month 8 (month 0: 196)", "value": 134, "unit": "mg/dL"}, {"measurement": "Lipids: total cholesterol", "setting": "[4]; month 8 (month 0: 265)", "value": 205, "unit": "mg/dL"}, {"measurement": "fibrinogen", "setting": "[4]; month 8 (month 0: 332)", "value": 334, "unit": "mg/dL"}, {"measurement": "LDL-P", "setting": "[4]; month 8 (month 0: 2,250)", "value": "1,529 nmol/L"}, {"measurement": "hs-CRP", "setting": "[4]; month 8 (month 0: <0.3)", "value": 0.3, "unit": "mg/L"}, {"measurement": "weight lost", "setting": "[5]; scleroderma and type 2 diabetes, 500 mg to 2000 mg orally almost every day, first two and one half years", "value": "over 30 pounds"}, {"measurement": "insulin and creatine/albumin levels", "setting": "[5]; type 2 diabetes, 500 mg to 2000 mg orally over 5 years", "value": "normal"}, {"measurement": "blood glucose level", "setting": "[5]; type 2 diabetes, minimum dose of 500 mg three times a day", "value": "improved"}, {"measurement": "HDL levels", "setting": "[5]; 500 mg to 2000 mg orally", "value": "stayed the same"}, {"measurement": "Lp-PLA level", "setting": "[5]; 500 mg to 2000 mg orally", "value": "went down"}, {"measurement": "fibrinogen homocysteine levels", "setting": "[5]; 500 mg to 2000 mg orally", "value": "stayed the same"}, {"measurement": "eye sight", "setting": "[5]; [8]", "value": "improved"}, {"measurement": "mental capacity", "setting": "[5]; [8]", "value": "has not deteriorated"}, {"measurement": "overall energy levels", "setting": "[5]; [8]", "value": "increased"}, {"measurement": "overall skin tone and texture", "setting": "[5]; [8]", "value": "improved"}, {"measurement": "CRP level", "setting": "[5]; 500 mg to 2000 mg orally, from 0.58", "value": "< 0.3"}, {"measurement": "LDL level", "setting": "[5]; 500 mg to 2000 mg orally, from 209, within the last 16 months", "value": 160, "unit": "mg/dL"}, {"measurement": "cholesterol levels", "setting": "[5]; 500 mg to 2000 mg orally, from 300, without diet change or any medicines", "value": 265, "unit": "mg/dL"}, {"measurement": "mental capacity", "setting": "[6]", "value": "increased mental capacity"}, {"measurement": "muscle strength", "setting": "[6]", "value": "improved muscle strength"}, {"measurement": "nail and hair health", "setting": "[6]", "value": "improvement in nail and hair health"}, {"measurement": "sexual stamina and sexual performance", "setting": "[6]", "value": "improved sexual stamina and sexual performance"}, {"measurement": "skin condition", "setting": "[6]", "value": "improved"}, {"measurement": "vitality or energy levels", "setting": "[6]", "value": "improved vitality or energy levels"}, {"measurement": "weight lost per month", "setting": "[6]", "value": "approximately 0.5 kg"}, {"measurement": "body weight on average", "setting": "[6]; from 108 kg", "value": 102, "unit": "kg"}, {"measurement": "blood pressure", "setting": "[7]; person with high blood pressure, reduced from 220/110", "value": "around 130/78"}, {"measurement": "sleep and energy", "setting": "[7]; person", "value": "better sleep and felt more energetic"}, {"measurement": "body weight", "setting": "[7]; person, at least one dress size", "value": "weight loss"}, {"measurement": "serum triglyceride levels", "setting": "triglyceride", "value": "322.66 ± 158.85", "unit": "mg/dL"}]}]}
